# According to US4273866A, “Ligand analog-irreversible enzyme inhibitor conjugates and methods for use” (priority 1979, dated 1981):
# Tests used:
# [1] = target: T1, E. electricus acetylcholinesterase (Electrophorus electricus, UniProt O42275); assay: Antibody modulation of Compound I inhibitory activity (residual acetylcholinesterase activity); type: biochemical; conditions: Compound I 4.5 × 10^-7 M
# Description: (§1) A stock solution of Compound I (4.6×10^-3 molar in methanol) is diluted 200-fold with pH 7.0, 0.1 molar phosphate buffer containing 0.1% gelatin. Digoxin antibody is diluted in phosphate-gelatin buffers as indicated in Table I. Fifty microliters of phosphate-gelatin buffer, pH 7.0, containing the indicated concentration of antibody is placed in sample cups of a bichromatic spectrophotometer (model ABA-100® sold by Abbott Laboratories). To each of these 50 μl is added 1 μl of Compound I working solution making the final concentration 4.5×10^-7 molar. The antibody and Compound I (inhibitor) are allowed to incubate for 10-15 minutes at room temperature. Each sample receives 1 .parallel.l of working enzyme solution (9.5×10^-9 molar of E. electricus acetylcholinesterase in pH 7.0 phosphate-gelatin buffer). The final enzyme concentration is 1.9×10^-10 molar. The sample is diluted 1/26 with assay buffer containing acetylthiocholine, as substrate, 5×10^-4 molar and 5,5'-dithiobis-(2 -nitrobenzoic acid) (DTNB), 1.6×10^-4 molar in pH 7.0 phosphate-gelatin buffer. The change in absorbance with time is measured after 5 minutes in the bichromatic analyzer equipped with a 415/550 nm filter at 30° C.
# [2] = system: acetylcholinesterase; assay: Digoxin in serum assay with Compound I; type: biochemical, E. electricus
# Description: as §1, with “C. The results are as follows:” for “C.”
# Normal human serum containing digoxin concentrations listed in the table below are assayed by the procedure set out above.
# N-Ethylmaleimide is used to block background sulfhydryl groups in human serum.
# Thus, 1 μl of concentrated digoxin antibody in pH 7.0 phosphate-gelatin buffer containing 50 mM of N-methylorphenadrine is added to 50 μl of each serum standard then N-ethylmaleimide is added with mixing to each serum standard to make a working concentration of 1.6 mM. To the serum is also added 1 μl of a solution containing Compound I in pH 7.0, 0.1 molar phosphate-gelatin buffer. The final antibody concentration is 8.0×10^-7 molar and the final concentration of Compound I is 4.5×10^-7. These solutions are allowed to incubate for 12 minutes at which time acetylcholinesterase is added as before. After 26 minutes, the bichromatic spectrophotometer is started and a sample from each cup is diluted 26-fold with assay buffer containing 1.6×10^-5 molar DTNB, 5×10^-4 molar acetyl-β-methylthiocholine iodide, and 1 mM N-methyl-orphenadrine in pH 7.0, 0.1 molar phosphate-gelatin buffer. The final enzyme concentration is about 2×10^-11 molar and the cuvette temperature is 30° C. The change in absorbance after 5 minutes is as follows: […]
# [3] = target: T1, E. electricus acetylcholinesterase; assay: Specific modulation of Compound I inhibition by digoxin antibody and digoxin; type: biochemical
# Description: as §1, with “C. The results are as follows:” for “C.”
# (§2) The above experiment is repeated except digoxin at a concentration of 2.5×10^-5 molar is added to the sample cups. […] Fifty microliters of phosphate-gelatin buffer is added to a sample cup. The buffer solution either contains 2.5×10^-5 molar digoxin or is a control. To the sample cup is added a final concentration of 9×10^-7 molar digoxin antibody and 4.5×10^-7 molar Compound I. These solutions are allowed to incubate for 15 minutes and then enzyme is added and assayed according to the previous procedure.
# [4] = target: T1, E. electricus acetylcholinesterase; assay: Residual enzyme activity with Compound I, antibody and digoxin in buffer; type: biochemical; conditions: antibody 4.5×10^-7 molar, after 21 minutes
# Description: as §1, with “C. The results are as follows:” for “C.”
# as §2, with “procedure. The results are as follows:” for “procedure.”
# Using the above procedures with the exception that the antibody final concentration in the sample is 4.5×10^-7 molar, various phosphate-gelatin buffer solutions are prepared with the indicated digoxin concentration. Each of these solutions are analyzed by adding antibody and Compound I to the solution as in the previous procedure, allowing a 2.5 minute incubation period to elapse and assaying for the residual enzyme activity after 21 minutes.
# [5] = target: cholinesterase from E.electricus (Electrophorus electricus, UniProt O42275); assay: Inhibition of cholinesterase from E.electricus; type: biochemical; conditions: 1 mM
# Sequence of cholinesterase from E.electricus (O42275 24-633): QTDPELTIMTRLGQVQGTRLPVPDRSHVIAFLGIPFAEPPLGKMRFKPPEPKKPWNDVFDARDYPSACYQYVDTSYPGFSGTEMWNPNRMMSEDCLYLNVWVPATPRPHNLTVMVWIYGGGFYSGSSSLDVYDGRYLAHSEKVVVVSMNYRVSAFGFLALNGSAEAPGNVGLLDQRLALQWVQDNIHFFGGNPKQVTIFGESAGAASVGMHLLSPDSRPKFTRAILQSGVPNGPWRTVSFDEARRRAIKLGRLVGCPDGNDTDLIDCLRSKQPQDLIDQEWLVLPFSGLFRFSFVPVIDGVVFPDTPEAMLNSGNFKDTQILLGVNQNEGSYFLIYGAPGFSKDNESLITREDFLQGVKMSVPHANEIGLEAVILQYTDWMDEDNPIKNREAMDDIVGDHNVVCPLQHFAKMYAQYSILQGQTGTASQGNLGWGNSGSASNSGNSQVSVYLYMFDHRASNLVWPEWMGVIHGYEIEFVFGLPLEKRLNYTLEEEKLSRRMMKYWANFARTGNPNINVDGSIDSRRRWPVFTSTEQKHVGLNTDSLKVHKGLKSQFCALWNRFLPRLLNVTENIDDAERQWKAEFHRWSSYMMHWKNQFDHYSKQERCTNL
# Source text: (§3) N,N,N-Trimethyl-2-(o-methyl-α-phenylbenzyloxy) ethylammonium methylsulfate(N-methylorphenadrine) prepared by reacting N,N-dimethyl-2-(o-methyl-α-phenylbenzyloxy) ethylamine(orphenadrine)with dimethylsulfate.
# [6] = system: human serum cholinesterase; assay: Inhibition of human serum cholinesterase; type: biochemical; conditions: 1 mM
# Source text: as §3
# T1 sequence (O42275 24-633): as above
smiles,measurement,setting,value
CCOP(=O)(OCCCCCNC(=O)CCCCCNC(=O)OC1CCC2(C)C(CCC3C2CC(O)C2(C)C(C4=CC(=O)OC4)CCC32O)C1)Oc1ccc2ccc[n+](C)c2c1 (stereo not shown) [Compound I],change in absorbance with time,"[1]; antibody 9 × 10^-7 M, enzyme 1.9 × 10^-10 M, 10' incubation",0.161 Ad/5 min.
same,change in absorbance with time,"[1]; antibody 9 × 10^-7 M, enzyme 1.9 × 10^-10 M, 21' incubation",0.137 Ad/5 min.
same,change in absorbance with time,"[1]; antibody 9 × 10^-7 M, enzyme 1.9 × 10^-10 M, 43' incubation",0.107 Ad/5 min.
same,change in absorbance with time,"[1]; antibody 9 × 10^-8 M, enzyme 1.9 × 10^-10 M, 10' incubation",0.089 Ad/5 min.
same,change in absorbance with time,"[1]; antibody 9 × 10^-8 M, enzyme 1.9 × 10^-10 M, 21' incubation",0.027 Ad/5 min.
same,change in absorbance with time,"[1]; antibody 9 × 10^-8 M, enzyme 1.9 × 10^-10 M, 43' incubation",0.005 Ad/5 min.
same,change in absorbance with time,"[1]; no antibody, enzyme 1.9 × 10^-10 M (enzyme alone 0.220), 10' incubation",0.045 Ad/5 min.
same,change in absorbance with time,"[1]; no antibody, enzyme 1.9 × 10^-10 M (enzyme alone 0.221), 21' incubation",0.015 Ad/5 min.
same,change in absorbance with time,"[1]; no antibody, enzyme 1.9 × 10^-10 M (enzyme alone 0.222), 43' incubation",0.003 Ad/5 min.
same,change in absorbance after 5 minutes,"[2]; digoxin in serum 0.1 μM, antibody 8.0×10^-7 molar, Compound I 4.5×10^-7",0.096 Ad/5 Min.
same,change in absorbance after 5 minutes,[2]; digoxin in serum 0.13 μM,0.089 Ad/5 Min.
same,change in absorbance after 5 minutes,[2]; digoxin in serum 0.17 μM,0.083 Ad/5 Min.
same,change in absorbance after 5 minutes,[2]; digoxin in serum 0.26 μM,0.077 Ad/5 Min.
same,change in absorbance after 5 minutes,[2]; digoxin in serum 0.34 μM,0.073 Ad/5 Min.
same,change in absorbance after 5 minutes,[2]; digoxin in serum 0.51 μM,0.063 Ad/5 Min.
same,change in absorbance after 5 minutes,[2]; digoxin in serum 0.64 μM,0.060 Ad/5 Min.
same,change in absorbance after 5 minutes,[2]; digoxin in serum 0.85 μM,0.047 Ad/5 Min.
same,change in absorbance after 5 minutes,[2]; digoxin in serum 1.30 μM,0.035 Ad/5 Min.
same,Ad/5 min. after enzyme-inhibitor incubation time,"[3]; Enzyme + Compound I + Antibody (9×10^-7 molar), 0.3'",0.160 Ad/5 min.
same,Ad/5 min. after enzyme-inhibitor incubation time,"[3]; Enzyme + Compound I + Antibody (9×10^-7 molar), 11'",0.129 Ad/5 min.
same,Ad/5 min. after enzyme-inhibitor incubation time,"[3]; Enzyme + Compound I + Antibody (9×10^-7 molar), 19'",0.115 Ad/5 min.
same,Ad/5 min. after enzyme-inhibitor incubation time,"[3]; Enzyme + Compound I + Antibody + Digoxin (2.5×10^-5 molar), 0.3'",0.160 Ad/5 min.
same,Ad/5 min. after enzyme-inhibitor incubation time,"[3]; Enzyme + Compound I + Antibody + Digoxin (2.5×10^-5 molar), 11'",0.068 Ad/5 min.
same,Ad/5 min. after enzyme-inhibitor incubation time,"[3]; Enzyme + Compound I + Antibody + Digoxin (2.5×10^-5 molar), 19'",0.038 Ad/5 min.
same,Ad/5 min. after enzyme-inhibitor incubation time,"[3]; Enzyme + Compound I, 0.3' (enzyme only 0.174)",0.162 Ad/5 min.
same,Ad/5 min. after enzyme-inhibitor incubation time,"[3]; Enzyme + Compound I, 11' (enzyme only 0.169)",0.037 Ad/5 min.
same,Ad/5 min. after enzyme-inhibitor incubation time,"[3]; Enzyme + Compound I, 19' (enzyme only 0.167)",0.013 Ad/5 min.
same,% Activity of Enzyme,[4]; digoxin 0.062 μM,65%
same,% Activity of Enzyme,[4]; digoxin 0.125 μM,65%
same,% Activity of Enzyme,[4]; digoxin 0.25 μM,62%
same,% Activity of Enzyme,[4]; digoxin 0.5 μM,57%
same,% Activity of Enzyme,[4]; digoxin 1.0 μM,36%
"Cc1ccccc1C(OCC[N+](C)(C)C)c1ccccc1 (stereo not drawn) [N-methylorphenadrine, N,N,N-Trimethyl-2-(o-methyl-α-phenylbenzyloxy) ethylammonium methylsulfate]",inhibition at 1000 µM,[5],25%
same,inhibition of human serum cholinesterase,[6],greater than 99%
